Results reported in patent US5459148A, “Biphenyl derivatives and their use for the treatment of hypertension and cardiac disease” (Sankyo Company, Limited, priority 1992, dated 1995).

Target: T1, AII receptor (Rattus norvegicus, UniProt P25095)
T1 construct: from tissue; host or cells: whole anesthetized male Wister-Imamichi rat (in vivo, blood pressure in the femoral artery)
T1 sequence (P25095 1-359): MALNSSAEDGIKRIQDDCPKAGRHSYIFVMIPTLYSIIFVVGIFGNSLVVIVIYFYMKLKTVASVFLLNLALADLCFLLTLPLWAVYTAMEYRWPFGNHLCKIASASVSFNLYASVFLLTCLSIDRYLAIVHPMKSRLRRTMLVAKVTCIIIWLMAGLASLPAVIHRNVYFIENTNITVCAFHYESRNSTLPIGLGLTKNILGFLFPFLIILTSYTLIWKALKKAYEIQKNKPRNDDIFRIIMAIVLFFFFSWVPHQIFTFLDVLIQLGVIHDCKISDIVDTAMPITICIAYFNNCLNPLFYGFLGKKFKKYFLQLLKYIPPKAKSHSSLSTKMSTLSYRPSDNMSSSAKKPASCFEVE
Assay: Inhibition of pressor response to intravenous angiotensin II (AII receptor blocking activity)
Type: in vivo, rat (male Wister-Imamichi)
Details: 2 min, read-out: ID50 (dose required to inhibit the pressor response to intravenous angiotensin II by fifty percent)
Protocol: Evaluation of AII receptor blocking activity by Inhibition of pressor response to angiotensin II
The biological activity of each compound was assessed by determining the dose required to inhibit the pressor response to intravenous angiotensin II by fifty percent (ID50) in rats. Male Wister-Imamichi rats, each weighing 300 to 400 g, were anesthesized by intraperitoneal injection of 100 mg/Kg of sodium thiobutabarbital [Inactin (trade name)] and two cannulae were inserted: one into the femoral artery for measuring blood pressure and the other into the femoral vein for injecting drugs. […] The percent inhibitions of the pressor response to angiotensin II by progressive increase of the test compound was used to calculate the value of ID50. Angiotensin II was used in this test dissolved in 0.5% bovine serum albumin (BSA) and the test compounds were dissolved in 100% dimethyl sulfoxide (DMSO).

Row | Compound | ED50 [mg/kg]
1 | CCCc1nc(C(C)(C)O)c(C(=O)O)n1Cc1ccc(-c2ccccc2C(=O)C(=O)O)cc1 [Example 1, 4-(1-Hydroxy-1-methylethyl)-1-[(2'-oxalobiphenyl-4-yl)methyl]-2-propylimidazole-5-carboxylic acid] | 0.0065
2 | CCCCc1nc(C(C)(C)O)c(C(=O)O)n1Cc1ccc(-c2ccccc2C(=O)C(=O)O)cc1 [Example 2, 2-Butyl-4-(1-hydroxy-1-methylethyl)-1-[(2'-oxalobiphenyl-4-yl)methyl]imidazole-5-carboxylic acid] | 0.026
3 | CCCc1nc(CO)c(C(=O)O)n1Cc1ccc(-c2ccccc2C(=O)C(=O)O)cc1 [Example 6, 4-Hydroxymethyl-1-[(2'-oxalobiphenyl-4-yl)methyl]-2-propylimidazole-5-carboxylic acid] | 0.02
4 | CCCc1nc(C(C)(C)O)c(-c2nnn[nH]2)n1Cc1ccc(-c2ccccc2C(=O)C(=O)O)cc1 [Example 7, {4'-[4-(1-Hydroxy-1-methylethyl)-2-propyl-5-(tetrazol-5-yl)imidazol-1-ylmethyl]biphenyl-2-yl}glyoxylic acid] | 0.021
5 | C=C(C)c1nc(CCC)n(Cc2ccc(-c3ccccc3C(=O)C(=O)O)cc2)c1C(=O)O [Example 8, 4-Isopropenyl-1-[(2'-oxalobiphenyl-4-yl)methyl]-2-propylimidazole-5-carboxylic acid] | 0.06
6 | CCCc1nc(C(C)C)c(C(=O)O)n1Cc1ccc(-c2ccccc2C(=O)C(=O)O)cc1 [Example 9, 4-Isopropyl-1-[(2'-oxalobiphenyl-4-yl)methyl]-2-propylimidazole-5-carboxylic acid] | 0.053
7 | CCCc1nc(C(O)C(C)C)c(C(N)=O)n1Cc1ccc(-c2ccccc2C(=O)C(=O)O)cc1 (stereo not shown) [Example 10, 4-(1-Hydroxy-2-methylpropyl)-1-[(2'-oxalobiphenyl-4-yl)-methyl]-2-propylimidazole-5-carboxamide] | 0.022
8 | CCCc1nc(C(O)C(C)(C)C)c(C(N)=O)n1Cc1ccc(-c2ccccc2C(=O)C(=O)O)cc1 (stereo not shown) [Example 11, 4-(1-Hydroxy-2,2-dimethylpropyl)-1-[(2'-oxalobiphenyl-4-yl)methyl]-2-propylimidazole-5-carboxamide] | 0.017
9 | CCCCc1nc(C(O)C(C)C)c(C(N)=O)n1Cc1ccc(-c2ccccc2C(=O)C(=O)O)cc1 (stereo not shown) [Example 12, 2-Butyl-4-(1-hydroxy-2-methylpropyl)-1-[(2'-oxalobiphenyl-4-yl)methyl]imidazole-5-carboxamide] | 0.042
10 | CCCCc1nc(C(O)C(C)(C)C)c(C(N)=O)n1Cc1ccc(-c2ccccc2C(=O)C(=O)O)cc1 (stereo not shown) [Example 13, 2-Butyl-4-(1-hydroxy-2,2-dimethylpropyl)-1-[(2'-oxalobiphenyl-4-yl)methyl]imidazole-5-carboxamide] | 0.048
11 | CCOCc1nc(C(C)(C)O)c(C(=O)O)n1Cc1ccc(-c2ccccc2C(=O)C(=O)O)cc1 [Example 14, 2-Ethoxymethyl-4-(1-hydroxy-1-methylethyl)-1-[(2'-oxalobiphenyl-4-yl)methyl]imidazole-5-carboxylic acid] | 0.0096
12 | CCc1nc2c(C)cc(C)nc2n1Cc1ccc(-c2ccccc2C(=O)C(=O)O)cc1 [Example 16, 2-Ethyl-5,7-dimethyl-3-(2'-oxalobiphenyl-4-yl)methyl-3H-imidazo[4,5-b]pyridine] | 0.024
13 | CCCc1nc(C(C)(C)O)c(C(=O)O)n1Cc1ccc(-c2ccccc2C(=O)c2nnn[nH]2)cc1 [Example 20, 4-(1-Hydroxy-1-methylethyl)-1-{[2'-(tetrazol-5-ylcarbonyl)biphenyl-4-yl]methyl}-2-propylimidazole-5-carboxylic acid] | 0.026
